According to article PMC7558399, “In Vitro Selective Growth-Inhibitory Activities of Phytochemicals, Synthetic Phytochemical Analogs, and Antibiotics against Diarrheagenic/Probiotic Bacteria and Cancer/Normal Intestinal Cells” (Pharmaceuticals, 2020):
≈ marks a conversion by molar mass, not a printed value. Where two headings read alike, the source gives them in different places.

What was measured:
Type in all cases: cell-based
[1] = tested on: Bifidobacterium breve (ATCC 15700); assay: Broth microdilution MIC, B. breve; conditions: ATCC15700, growth inhibited by ≥80%, read-out: MIC
[2] = tested on: probiotic bacteria (9 strains); assay: Broth microdilution MIC, probiotic bacteria as a group (mean or range over strains)
[3] = tested on: Lactobacillus reuteri (CCM 3625); assay: Broth microdilution MIC, L. reuteri; conditions: Limosilactobacillus reuteri, CCM3625; Lactobacillus reuteri; growth inhibited by ≥80%; read-out: MIC
[4] = tested on: diarrheagenic bacteria (12 strains); assay: organism not typed
[5] = tested on: Bifidobacterium adolescentis (DSMZ 20087); assay: Broth microdilution MIC, B. adolescentis; conditions: DSMZ20087, growth inhibited by ≥80%, read-out: MIC
[6] = tested on: Bifidobacterium longum ssp. longum (DSMZ 20219); assay: Broth microdilution MIC, B. longum ssp. longum; conditions: DSMZ20219; Bifidobacterium longum ssp. longum; growth inhibited by ≥80%; read-out: MIC
[7] = tested on: Vibrio parahaemolyticus (ATCC 17802); assay: Broth microdilution MIC, V. parahaemolyticus; conditions: ATCC17802, growth inhibited by ≥80%, read-out: MIC
[8] = tested on: Bacteroides fragilis (ATCC 25285); assay: Broth microdilution MIC, B. fragilis
[9] = tested on: Yersinia enterocolitica (ATCC 9610); assay: Broth microdilution MIC, Y. enterocolitica; conditions: ATCC9610, growth inhibited by ≥80%, read-out: MIC
[10] = tested on: Listeria monocytogenes (ATCC 7644); assay: Broth microdilution MIC, L. monocytogenes; conditions: ATCC7644, growth inhibited by ≥80%, read-out: MIC
[11] = tested on: intestinal cancer cells (HT29 and Caco-2); assay: MTT cytotoxicity assay, mean for intestinal cancer cells; conditions: for IC50: mean of HT29 and Caco-2, >512 replaced with 1024, read-out: x¯ -CC ± SD: mean IC50 for intestinal cancer cells; for IC80: read-out: x¯ -CC ± SD: mean IC80 for intestinal cancer cells
[12] = tested on: Shigella flexneri (ATCC 12022); assay: microbe, parasite or virus in culture; conditions: ATCC12022
[13] = tested on: Bifidobacterium bifidum (ATCC 29521); assay: Broth microdilution MIC, B. bifidum; conditions: ATCC29521, growth inhibited by ≥80%, read-out: MIC
[14] = tested on: Lactobacillus casei (DSMZ 20011); assay: Broth microdilution MIC, L. casei; conditions: Lacticaseibacillus casei, DSMZ20011; Lactobacillus casei; growth inhibited by ≥80%; read-out: MIC
[15] = tested on: S. enterica ssp. enterica serovar Typhimurium (ATCC 14028); assay: Broth microdilution MIC, Salmonella Typhimurium; conditions: Salmonella Typhimurium, growth inhibited by ≥80%, read-out: MIC
[16] = tested on: Bacillus cereus (ATCC 14579); assay: Broth microdilution MIC, B. cereus; conditions: median/mode, read-out: MIC
[17] = tested on: Lactobacillus rhamnosus (CCM 7091); assay: Broth microdilution MIC, L. rhamnosus; conditions: Lacticaseibacillus rhamnosus, CCM7091; Lactobacillus rhamnosus; growth inhibited by ≥80%; read-out: MIC
[18] = tested on: Bifidobacterium animalis spp. lactis (DSMZ 10140); assay: Broth microdilution MIC, B. animalis spp. lactis; conditions: DSMZ10140; Bifidobacterium animalis spp. lactis; growth inhibited by ≥80%; read-out: MIC
[19] = tested on: Escherichia coli (ATCC 25922); assay: Broth microdilution MIC, E. coli; conditions: ATCC25922, growth inhibited by ≥80%, read-out: MIC
[20] = tested on: E. coli 0175:H7 (NCTC 12900); assay: microbe, parasite or virus in culture; conditions: Escherichia coli, NCTC12900
[21] = tested on: Clostridium perfringens (DSMZ 11778); assay: microbe, parasite or virus in culture; conditions: DSMZ11778
[22] = tested on: Clostridium difficile (DSMZ 12056); assay: microbe, parasite or virus in culture; conditions: Clostridioides difficile, DSMZ12056; Clostridium difficile; […]; read-out: MIC
[23] = tested on: Caco-2 (ATCC HTB 37) intestinal cancer cells; assay: MTT cytotoxicity assay, Caco-2; conditions: Homo sapiens, Caco-2, MTT, 72 h; for IC50: read-out: IC50 ± SD; for IC80: read-out: IC80 ± SD (80% inhibitory concentration of proliferation)
[24] = tested on: FHs 74 Int (ATCC CCL 241) intestinal normal cells; assay: MTT cytotoxicity assay, FHs 74 Int; conditions: FHs 74 Int (intestinal normal cells), MTT, 72 h; for IC50 / IC80: FHs74Int; for IC50: read-out: IC50 ± SD; for IC80: read-out: IC80 ± SD (80% inhibitory concentration of proliferation)
[25] = tested on: Enterococcus faecalis (ATCC 29212); assay: Broth microdilution MIC, E. faecalis; conditions: ATCC29212, growth inhibited by ≥80%, read-out: MIC
[26] = tested on: HT29 (ATCC HTB 38) intestinal cancer cells; assay: MTT cytotoxicity assay, HT29; conditions: Homo sapiens, HT-29, HT29, MTT, 72 h; for IC50: read-out: IC50 ± SD; for IC80: read-out: IC80 ± SD (80% inhibitory concentration of proliferation)
[27] = tested on: Salmonella enterica ssp. enterica serovar Enteritidis (ATCC 13076); assay: Broth microdilution MIC, Salmonella Enteritidis; conditions: Salmonella Enteritidis, growth inhibited by ≥80%, read-out: MIC
[28] = mean of 9 strains, >512 replaced with 1024, read-out: x¯ -PB ± SD: mean MIC for probiotic bacteria
[29] = mean of 12 strains, >512 replaced with 1024, read-out: x¯ -DB ± SD: mean MIC for diarrheagenic bacteria

**Q.** What does the source list for `O=C(N[C@H](CO)[C@H](O)c1ccc([N+](=O)[O-])cc1)C(Cl)Cl` [CA, chloramphenicol]?
**A.** MIC [1]: 4 µg/mL (≈ 12.4 µM); MIC ([2]; bifidobacteria, range over strains, read-out: MICs): 2 to 4 µg/mL (≈ 6.19 to 12.4 µM); MIC [2, 28]: 6.2 ± 4 µg/mL (≈ 19.2 µM); MIC [3]: 8 µg/mL (≈ 24.8 µM); MIC ([4]; at least half of the diarrheagenic bacteria, read-out: MICs): 1 to 4 µg/mL (≈ 3.09 to 12.4 µM); MIC [4, 29]: 16.5 ± 34 µg/mL (≈ 51.1 µM); MIC [5]: 4 µg/mL (≈ 12.4 µM); MIC [6]: 4 µg/mL (≈ 12.4 µM); MIC [7]: 2 µg/mL (≈ 6.19 µM); MIC ([8]; ATCC25285, growth inhibited by ≥80%, read-out: MIC): 4 µg/mL (≈ 12.4 µM); MIC [9]: 16 µg/mL (≈ 49.5 µM); MIC [10]: 8 µg/mL (≈ 24.8 µM); IC50 [11]: 355 ± 84 µg/mL (≈ 1100 µM); IC80 [11]: > 512 µg/mL; MIC [12]: 4 µg/mL (≈ 12.4 µM); MIC [13]: 4 µg/mL (≈ 12.4 µM); MIC [14]: 16 µg/mL (≈ 49.5 µM); MIC [15]: 8 µg/mL (≈ 24.8 µM); MIC ([16]; ATCC14579, growth inhibited by ≥80%): 8 µg/mL (≈ 24.8 µM); MIC [17]: 8 µg/mL (≈ 24.8 µM); MIC [18]: 4 µg/mL (≈ 12.4 µM); MIC [19]: 4 µg/mL (≈ 12.4 µM); MIC [20]: 8 µg/mL (≈ 24.8 µM); MIC [21]: 4 µg/mL (≈ 12.4 µM); MIC [22]: 4 µg/mL (≈ 12.4 µM); IC50 [23]: 439.3 ± 4 µg/mL (≈ 1360 µM); IC80 [23]: > 512 µg/mL; IC80 ± SD (80% inhibitory concentration of proliferation) [24]: - (Not active (MIC/IC50/80 > 512 μg/mL, the value 1024 μg/mL was used for average calculation)); IC50 [24]: 30.7 ± 5.6 µg/mL (≈ 95 µM); IC80 [24]: > 512 µg/mL; MIC [25]: 128 µg/mL (≈ 396 µM); IC50 [26]: 271.1 ± 1 µg/mL (≈ 839 µM); IC80 [26]: > 512 µg/mL; MIC [27]: 4 µg/mL (≈ 12.4 µM)

**Q.** For `CO/N=C(\C(=O)N[C@@H]1C(=O)N2C(C(=O)O)=C(CSc3nc(=O)c(=O)[nH]n3C)CS[C@H]12)c1csc(N)n1` [CF, ceftriaxone sodium], which MIC [1] is on record?
**A.** 32 µg/mL

**Q.** What about the MIC ([2]; Bifidobacterium breve and Bifidobacterium longum ssp. longum, read-out: MICs) of the same compound?
**A.** 8 to 32 µg/mL

**Q.** What about the MIC ([2]; lactobacilli, range over strains, read-out: MICs) of the same compound?
**A.** 0.5 to 32 µg/mL

**Q.** What about the MIC [2, 28] of the same compound?
**A.** 26.6 ± 38 µg/mL

**Q.** What about the MIC ([2]; remaining bifidobacteria (other than B. breve and B. longum ssp. longum), read-out: MICs) of the same compound?
**A.** 1 to 4 µg/mL

**Q.** What about the MIC [3] of the same compound?
**A.** 0.5 µg/mL

**Q.** What about the MIC ([4]; all gram-negative diarrheagenic bacteria, range over strains, read-out: MICs) of the same compound?
**A.** 0.062 to 0.5 µg/mL

**Q.** And the MIC ([4]; gram-positive pathogens, range over strains, read-out: MICs)?
**A.** 4 to 512 µg/mL

**Q.** What about the MIC [4, 29] of the same compound?
**A.** 61.8 ± 141 µg/mL

**Q.** What about the MIC [5] of the same compound?
**A.** 1 µg/mL

**Q.** What about the MIC [6] of the same compound?
**A.** 8 µg/mL

**Q.** And the MIC [7]?
**A.** 0.125 µg/mL

**Q.** What about the MIC ([8]; ATCC25285) of the same compound?
**A.** 128 µg/mL

**Q.** What about the MIC [9] of the same compound?
**A.** 0.25 µg/mL

**Q.** What about the MIC [10] of the same compound?
**A.** 32 µg/mL

**Q.** What about the IC50 [11] of the same compound?
**A.** > 512 µg/mL

**Q.** What about the IC80 [11] of the same compound?
**A.** > 512 µg/mL

**Q.** What about the MIC [12] of the same compound?
**A.** 0.5 µg/mL

**Q.** What about the MIC [13] of the same compound?
**A.** 4 µg/mL

**Q.** And the MIC [14]?
**A.** 32 µg/mL

**Q.** What about the MIC [15] of the same compound?
**A.** 0.25 µg/mL

**Q.** And the MIC ([16]; ATCC14579, […])?
**A.** 128 µg/mL

**Q.** And the MIC [17]?
**A.** 32 µg/mL

**Q.** And the MIC [18]?
**A.** 2 µg/mL

**Q.** And the MIC [19]?
**A.** 0.062 µg/mL

**Q.** And the MIC [20]?
**A.** 0.5 µg/mL

**Q.** What about the MIC [21] of the same compound?
**A.** 4 µg/mL

**Q.** What about the MIC [22] of the same compound?
**A.** 64 µg/mL

**Q.** And the IC50 [23]?
**A.** > 512 µg/mL

**Q.** What about the IC80 [23] of the same compound?
**A.** > 512 µg/mL

**Q.** And the “IC50 ± SD” value [24]?
**A.** - (Not active (MIC/IC50/80 > 512 μg/mL, the value 1024 μg/mL was used for average calculation))

**Q.** What about the “IC80 ± SD (80% inhibitory concentration of proliferation)” value [24] of the same compound?
**A.** - (Not active (MIC/IC50/80 > 512 μg/mL, the value 1024 μg/mL was used for average calculation))

**Q.** What about the IC50 [24] of the same compound?
**A.** > 512 µg/mL

**Q.** And the IC80 [24]?
**A.** > 512 µg/mL

**Q.** And the MIC [25]?
**A.** 512 µg/mL

**Q.** And the IC50 [26]?
**A.** > 512 µg/mL

**Q.** And the IC80 [26]?
**A.** > 512 µg/mL

**Q.** What about the MIC [27] of the same compound?
**A.** 0.25 µg/mL
